# Assay results reported in ChEMBL document CHEMBL5550160, “Leveraging a rationally designed veliparib-based anilide eliciting anti-leukemic effects for the design of pH-responsive polymer nanoformulation” (Eur J Med Chem, 2024).
# Activity calls are given as the source filed them. The rule behind the calls is not given here.
# Columns and labels:
# [1] = biological target: Histone deacetylase 5 (Homo sapiens) (UniProt Q9UQL6); assay: Inhibition of HDAC5 (unknown origin) assessed as residual activity at 1 x 10^-5M (reference value: 100%); conditions: dose 1.0 10^-5M
# Histone deacetylase 2 = Histone deacetylase 2 (Homo sapiens, UniProt Q92769); assay: Inhibition of HDAC2 (unknown origin) assessed as residual activity at 3.33 x 10^-6M (reference value: 99.81%); conditions: dose 3.33 10^-6M
# Histone deacetylase 3 = Histone deacetylase 3 (Homo sapiens, UniProt O15379); assay: Inhibition of HDAC3 (unknown origin) using p53 residues 379 to 382 [RHKK(Ac)] as fluorogenic substrate assessed as residual activity at 1.52 x 10^-9M (reference value: 103.08%); conditions: dose 1.52 10^-9M
# [2] = biological target: Histone deacetylase 5 (Homo sapiens) (UniProt Q9UQL6); assay: Inhibition of HDAC5 (unknown origin) assessed as residual activity at 1.23 x 10^-7M (reference value: 100%); conditions: dose 1.23 10^-7M
# [3] = biological target: T1, Histone deacetylase 7 (Homo sapiens) (UniProt Q8WUI4); assay: Inhibition of HDAC7 (unknown origin) assessed as residual activity at 3.70 x 10^-7M (reference value: 102.66%); conditions: dose 3.7 10^-7M
# T1 sequence (whole entry): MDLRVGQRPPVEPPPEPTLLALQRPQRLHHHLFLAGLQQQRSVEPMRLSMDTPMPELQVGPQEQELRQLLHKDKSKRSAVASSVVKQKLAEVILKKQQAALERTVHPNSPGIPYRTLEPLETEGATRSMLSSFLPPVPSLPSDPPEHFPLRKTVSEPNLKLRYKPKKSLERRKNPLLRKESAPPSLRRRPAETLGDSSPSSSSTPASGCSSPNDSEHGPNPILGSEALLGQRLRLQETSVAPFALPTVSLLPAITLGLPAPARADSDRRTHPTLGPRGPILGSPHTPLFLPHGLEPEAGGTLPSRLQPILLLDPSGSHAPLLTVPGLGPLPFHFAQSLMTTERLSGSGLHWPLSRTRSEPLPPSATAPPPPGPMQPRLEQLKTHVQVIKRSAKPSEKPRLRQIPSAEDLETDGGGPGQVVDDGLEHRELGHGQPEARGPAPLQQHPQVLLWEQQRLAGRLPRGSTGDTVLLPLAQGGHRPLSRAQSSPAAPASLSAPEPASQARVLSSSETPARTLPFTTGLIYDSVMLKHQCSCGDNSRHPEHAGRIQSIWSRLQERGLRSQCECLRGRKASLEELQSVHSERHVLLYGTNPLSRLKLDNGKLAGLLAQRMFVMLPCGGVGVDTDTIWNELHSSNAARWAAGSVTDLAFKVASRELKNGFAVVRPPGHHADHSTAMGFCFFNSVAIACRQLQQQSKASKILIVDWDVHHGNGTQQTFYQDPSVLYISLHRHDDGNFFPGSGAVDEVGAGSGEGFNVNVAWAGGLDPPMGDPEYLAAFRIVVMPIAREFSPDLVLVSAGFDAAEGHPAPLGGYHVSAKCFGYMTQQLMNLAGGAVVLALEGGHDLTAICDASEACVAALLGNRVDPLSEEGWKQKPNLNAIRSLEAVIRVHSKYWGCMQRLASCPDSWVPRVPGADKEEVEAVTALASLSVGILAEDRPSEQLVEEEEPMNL
# [4] = biological target: T2, Polyamine deacetylase HDAC10 (Homo sapiens) (UniProt Q969S8); assay: Inhibition of HDAC10 (unknown origin) assessed as residual activity at 1.37 x 10^-8M (reference value: 101.54%); conditions: dose 1.37 10^-8M
# T2 sequence (whole entry): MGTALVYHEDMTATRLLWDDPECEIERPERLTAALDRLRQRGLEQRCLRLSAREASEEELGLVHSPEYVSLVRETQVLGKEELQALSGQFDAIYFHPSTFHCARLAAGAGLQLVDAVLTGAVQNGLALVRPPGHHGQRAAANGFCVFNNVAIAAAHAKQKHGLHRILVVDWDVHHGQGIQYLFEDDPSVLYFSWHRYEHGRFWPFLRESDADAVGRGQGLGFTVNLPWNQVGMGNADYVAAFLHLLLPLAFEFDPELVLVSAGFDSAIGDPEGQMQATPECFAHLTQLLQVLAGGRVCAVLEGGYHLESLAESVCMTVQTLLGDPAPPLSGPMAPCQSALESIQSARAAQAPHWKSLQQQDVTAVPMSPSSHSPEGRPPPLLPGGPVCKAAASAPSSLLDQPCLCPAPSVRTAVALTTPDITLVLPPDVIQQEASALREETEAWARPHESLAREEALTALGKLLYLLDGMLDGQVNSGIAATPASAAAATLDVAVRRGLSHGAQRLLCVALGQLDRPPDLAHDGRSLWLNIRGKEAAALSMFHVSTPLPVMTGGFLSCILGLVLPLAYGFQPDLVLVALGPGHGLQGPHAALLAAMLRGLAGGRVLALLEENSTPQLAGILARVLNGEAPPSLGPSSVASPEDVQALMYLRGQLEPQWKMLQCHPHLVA
# HL-60 = assay: Downregulation of PARP-2 protein expression in human HL-60 cells by Western blot analysis; assay type: functional, cell-based
# Histone deacetylase 5 (Homo sapiens), sequence (Q9UQL6 whole entry): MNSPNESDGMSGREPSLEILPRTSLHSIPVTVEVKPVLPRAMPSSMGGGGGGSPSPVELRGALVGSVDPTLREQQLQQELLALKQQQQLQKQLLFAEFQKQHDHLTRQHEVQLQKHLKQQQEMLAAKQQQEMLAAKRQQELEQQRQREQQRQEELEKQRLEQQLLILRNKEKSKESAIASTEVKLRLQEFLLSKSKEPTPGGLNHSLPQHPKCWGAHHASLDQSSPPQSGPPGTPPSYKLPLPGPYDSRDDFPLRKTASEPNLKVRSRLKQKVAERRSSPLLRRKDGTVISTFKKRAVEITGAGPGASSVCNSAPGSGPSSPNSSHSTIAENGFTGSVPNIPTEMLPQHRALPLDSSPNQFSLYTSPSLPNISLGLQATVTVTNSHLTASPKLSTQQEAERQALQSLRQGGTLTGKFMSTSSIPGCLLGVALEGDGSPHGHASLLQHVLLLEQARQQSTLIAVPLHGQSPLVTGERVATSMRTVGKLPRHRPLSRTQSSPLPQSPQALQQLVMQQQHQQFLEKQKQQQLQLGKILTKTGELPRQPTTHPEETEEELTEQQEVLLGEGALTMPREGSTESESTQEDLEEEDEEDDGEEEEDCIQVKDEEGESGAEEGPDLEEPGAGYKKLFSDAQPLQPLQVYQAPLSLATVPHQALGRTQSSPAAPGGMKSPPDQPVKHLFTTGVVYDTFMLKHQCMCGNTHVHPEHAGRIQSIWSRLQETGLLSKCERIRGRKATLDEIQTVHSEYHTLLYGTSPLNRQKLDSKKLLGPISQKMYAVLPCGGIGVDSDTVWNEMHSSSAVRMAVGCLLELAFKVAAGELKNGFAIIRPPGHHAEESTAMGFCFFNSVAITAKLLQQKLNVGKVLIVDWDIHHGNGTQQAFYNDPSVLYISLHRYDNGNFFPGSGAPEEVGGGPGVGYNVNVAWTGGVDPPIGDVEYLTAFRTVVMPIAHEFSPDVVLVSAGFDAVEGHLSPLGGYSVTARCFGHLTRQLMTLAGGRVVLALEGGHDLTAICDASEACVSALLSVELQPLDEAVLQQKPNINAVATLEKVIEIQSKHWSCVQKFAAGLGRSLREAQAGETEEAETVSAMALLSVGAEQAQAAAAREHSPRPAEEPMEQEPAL
# Histone deacetylase 3, sequence (O15379 whole entry, the tested form may be a part): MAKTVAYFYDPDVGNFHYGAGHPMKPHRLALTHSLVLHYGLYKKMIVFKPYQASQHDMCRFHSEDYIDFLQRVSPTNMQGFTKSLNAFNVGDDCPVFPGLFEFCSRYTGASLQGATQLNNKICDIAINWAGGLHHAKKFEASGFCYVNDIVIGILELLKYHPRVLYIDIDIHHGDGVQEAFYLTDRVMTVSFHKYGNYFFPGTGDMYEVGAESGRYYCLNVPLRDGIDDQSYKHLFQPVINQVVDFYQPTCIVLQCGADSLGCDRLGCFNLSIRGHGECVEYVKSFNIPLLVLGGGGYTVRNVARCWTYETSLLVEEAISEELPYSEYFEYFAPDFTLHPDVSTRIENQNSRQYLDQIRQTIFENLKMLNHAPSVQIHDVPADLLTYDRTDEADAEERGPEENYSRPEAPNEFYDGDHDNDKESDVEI
# Histone deacetylase 2, sequence (Q92769 whole entry, the tested form may be a part): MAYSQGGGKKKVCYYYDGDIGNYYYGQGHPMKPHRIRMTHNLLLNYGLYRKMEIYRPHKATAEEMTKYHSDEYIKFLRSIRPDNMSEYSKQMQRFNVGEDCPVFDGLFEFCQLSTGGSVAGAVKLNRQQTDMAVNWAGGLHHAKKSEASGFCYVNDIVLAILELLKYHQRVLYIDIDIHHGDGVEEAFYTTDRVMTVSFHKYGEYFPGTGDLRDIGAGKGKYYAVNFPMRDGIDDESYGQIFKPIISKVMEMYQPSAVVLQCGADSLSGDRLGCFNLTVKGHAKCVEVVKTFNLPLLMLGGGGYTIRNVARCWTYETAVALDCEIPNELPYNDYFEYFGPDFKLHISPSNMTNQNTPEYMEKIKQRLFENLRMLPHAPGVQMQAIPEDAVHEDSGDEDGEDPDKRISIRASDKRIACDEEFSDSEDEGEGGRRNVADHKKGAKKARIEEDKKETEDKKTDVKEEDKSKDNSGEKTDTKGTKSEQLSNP
compound,measurement,setting,value
NC(=O)c1cccc2[nH]c(-c3ccc(NCc4ccc(C(=O)Nc5ccccc5N)cc4)cc3)nc12,Activity,[1],111%
same,Activity,Histone deacetylase 2,5.75%
same,Activity,Histone deacetylase 3,97.7%
same,Activity,[2],89.6%
same,Activity,[3],91.9%
same,Activity,[4],97.7%
same,Activity,HL-60,Active
